Results reported in patent US7157083B2, “Compositions and methods for treating retroviral infections” (priority 1998, dated 2007).

Tested on: clinical isolate ROJO (low passage HIV-1) in human PBMCs
Experiment: Study 1 PBMC assay: reverse transcriptase activity after ROJO infection (Treatments A, B, C)
Assay type: cell-based
Protocol: Percent virus control (% VC) in the following tables is the mean RT activity (cpm) as a percentage of a virus control. Percent cell control (% CC) is the mean XTT absorbance as a percentage of a cell control.
Peripheral blood monocular cells (PBMCs) are obtained from normal hepatitis and HIV-1 negative donors by ficoll hypaque gradient separation. Briefly, anti-coagulated blood is diluted 1:1 with Dulbecco's phosphate buffered saline without Ca^++ and Mg^++ (PBS) and layered over 14 mL of Lymphocyte separation media in a 50 ml centrifuge tube. Tubes are then centrifuged for 30 minutes at 600× g. Banded PBLs are gently aspirated from the resulting interface and subsequently washed 2× with PBS by low speed centrifugation. The mononuclear cells are counted, viability determined by Trypan Blue dye exclusion and resuspended in RPM1640 medium supplemented with 15% FBS (heat inactivated), 2 mM L-glutamine, 100 U/mL penicillin, 100 μg/mL streptomycin, and 10 μg/mL gentamycin with 2 μg/mL phytohemagluttin (PHA) at 1×10^6 cells/mL. The cells are cultured for 48 to 72 h at 37° C., 5% CO2 Following incubation, cells are collected by centrifugation, washed and resuspended in RPMI 1640 supplemented with 15% FBS (heat inactivated), 2 Mm L-glutamine, 100 U/mL penicillin, 100 μg/mL streptomycin, and 10 μg/mL gentamycin with 20 U/mL recombinant IL-2 (R & D Systems, Minneapolis, Minn.). IL-2 is included in the culture medium to maintain the cell division initiated by the PHA mitogenic stimulation. The cultures are then maintained until use by ½ culture volume change with fresh IL-2 containing medium every 3 days.
Human peripheral blood mononuclear cells from a minimum of 2 donors, that have been blasted with PHA and IL-2, are counted, viability determined by Trypan Blue dye exclusion and mixed in equal ratios. Pooled donors are used to minimize the variability observed between individual donors which results from quantitative and qualitative differences in HIV infection and overall response to the PHA and IL-2 of primary lymphocyte populations. The cells are resuspended at 1×10^6 cells/mL in RPMI 1640 without phenol red supplemented with 15% Fetal Bovine Serum (heat inactivated), 2 mM L-glutamine, 100 U/mL penicillin, 100 μg/mL streptomycin, 10 μg/mL gentamycin and IL-2 (20 U/mL, R&D Systems, Minneapolis, Minn.). Fifty microliters of cells are then distributed to the inner 60 wells of a 96 well round bottom Microtiter culture plate in a standard format developed by the Infectious Disease Research department of Southern Research Institute. Each plate contains cell control wells (cells only), virus control wells (cell plus virus), and experimental wells (drug plus cells plus virus).
Using an in-house computer program, IC50 (50% inhibition of virus replication), TC50 (50% reduction in cell viability) and a therapeutic index (TI, […]) were determined. AZT was used as a relevant positive control compound for the individual assays.
This study compares the ability of hyaluronidase to AZT to lower viral replication as measured by reverse transcriptase levels. RT was measured on days 7, 14, and 21. Three different treatment regimens were used in the comparative study (Treatments A, B and C).
Treatment A. Normal mixed PHA blasted human PBMCs (5×10e4/well) were pretreated with drug every 48 hours for 3 doses. On day 6 of pretreatment, cells were infected with clinical isolate ROJO. 48 hours post infection, treatment with drugs continued for an additional 3 treatments. Samples for assay were collected on D7 (day 7), 14, 21, post infection, frozen and later analyzed for reverse transcriptase.
Treatment B. Normal mixed PHA blasted human PBMCs (as above) were plated in 96 wells and allowed to incubate for 48 hours (cells were set at same time as treatment A from same pool). Drug pretreatment started on day 2 and was repeated on day 4. On day 6, cell were infected as in treatment A, with concurrent addition of drug for a total of 3 treatments. […]

With Cc1cn([C@H]2C[C@H](N=[N+]=[N-])[C@@H](CO)O2)c(=O)[nH]c1=O [AZT, reference compound] the “RT activity % VC” value (Treatment A, 0.00017 μM, Day 7) was 47.3%, the “RT activity % VC” value (Treatment A, 0.00017 μM, Day 14) was 115.4% and the “RT activity % VC” value (Treatment A, 0.00017 μM, Day 21) was 164.5%. For the same molecule, the “RT activity % VC” value (Treatment A, 0.00054 μM, Day 7) was 19.3%, the “RT activity % VC” value (Treatment A, 0.00054 μM, Day 14) was 99.8% and the “RT activity % VC” value (Treatment A, 0.00054 μM, Day 21) was 141.5%. For the same molecule, the “RT activity % VC” value (Treatment A, 0.00168 μM, Day 7) was 25.1%, the “RT activity % VC” value (Treatment A, 0.00168 μM, Day 14) was 74.2% and the “RT activity % VC” value (Treatment A, 0.00168 μM, Day 21) was 135.6%. For the same molecule, the “RT activity % VC” value (Treatment A, 0.00524 μM, Day 7) was 10.2%, the “RT activity % VC” value (Treatment A, 0.00524 μM, Day 14) was 78.3% and the “RT activity % VC” value (Treatment A, 0.00524 μM, Day 21) was 155.1%. For the same molecule, the “RT activity % VC” value (Treatment A, 0.01638 μM, Day 7) was 11.6%, the “RT activity % VC” value (Treatment A, 0.01638 μM, Day 14) was 57.9% and the “RT activity % VC” value (Treatment A, 0.01638 μM, Day 21) was 129.5%. The “RT activity % VC” value (Treatment A, 0.0512 μM, Day 7) was 3.0%, the “RT activity % VC” value (Treatment A, 0.0512 μM, Day 14) was 40.7% and the “RT activity % VC” value (Treatment A, 0.0512 μM, Day 21) was 134.8%. The “RT activity % VC” value (Treatment A, 0.16 μM, Day 7) was 2.7%, the “RT activity % VC” value (Treatment A, 0.16 μM, Day 14) was 40.3% and the “RT activity % VC” value (Treatment A, 0.16 μM, Day 21) was 126.3%. For the same molecule, the “RT activity % VC” value (Treatment A, 0.5 μM, Day 7) was 2.3%, the “RT activity % VC” value (Treatment A, 0.5 μM, Day 14) was 21.4% and the “RT activity % VC” value (Treatment A, 0.5 μM, Day 21) was 78.3%. For the same molecule, the “RT activity % VC” value (Treatment A, 5.5E-05 μM, Day 7) was 77.0%, the “RT activity % VC” value (Treatment A, 5.5E-05 μM, Day 14) was 100.4% and the “RT activity % VC” value (Treatment A, 5.5E-05 μM, Day 21) was 159.7%. The “RT activity % VC” value (Treatment B, 0.00017 μM, Day 7) was 43.6%, the “RT activity % VC” value (Treatment B, 0.00017 μM, Day 14) was 80.8% and the “RT activity % VC” value (Treatment B, 0.00017 μM, Day 21) was 129.8%. The “RT activity % VC” value (Treatment B, 0.00054 μM, Day 7) was 34.2%, the “RT activity % VC” value (Treatment B, 0.00054 μM, Day 14) was 70.1% and the “RT activity % VC” value (Treatment B, 0.00054 μM, Day 21) was 111.8%. For the same molecule, the “RT activity % VC” value (Treatment B, 0.00168 μM, Day 7) was 10.7%, the “RT activity % VC” value (Treatment B, 0.00168 μM, Day 14) was 57.5% and the “RT activity % VC” value (Treatment B, 0.00168 μM, Day 21) was 153.5%. For the same molecule, the “RT activity % VC” value (Treatment B, 0.00524 μM, Day 7) was 9.3%, the “RT activity % VC” value (Treatment B, 0.00524 μM, Day 14) was 51.0% and the “RT activity % VC” value (Treatment B, 0.00524 μM, Day 21) was 109.0%. For the same molecule, the “RT activity % VC” value (Treatment B, 0.01638 μM, Day 7) was 9.6%, the “RT activity % VC” value (Treatment B, 0.01638 μM, Day 14) was 58.0% and the “RT activity % VC” value (Treatment B, 0.01638 μM, Day 21) was 133.9%. The “RT activity % VC” value (Treatment B, 0.0512 μM, Day 7) was 5.4%, the “RT activity % VC” value (Treatment B, 0.0512 μM, Day 14) was 28.5% and the “RT activity % VC” value (Treatment B, 0.0512 μM, Day 21) was 158.0%. For the same molecule, the “RT activity % VC” value (Treatment B, 0.16 μM, Day 7) was 3.9%, the “RT activity % VC” value (Treatment B, 0.16 μM, Day 14) was 25.7% and the “RT activity % VC” value (Treatment B, 0.16 μM, Day 21) was 93.8%. For the same molecule, the “RT activity % VC” value (Treatment B, 0.5 μM, Day 7) was 5.4%, the “RT activity % VC” value (Treatment B, 0.5 μM, Day 14) was 9.5% and the “RT activity % VC” value (Treatment B, 0.5 μM, Day 21) was 87.5%. For the same molecule, the “RT activity % VC” value (Treatment B, 5.5E-05 μM, Day 7) was 90.9%, the “RT activity % VC” value (Treatment B, 5.5E-05 μM, Day 14) was 97.0% and the “RT activity % VC” value (Treatment B, 5.5E-05 μM, Day 21) was 163.3%. The “RT activity % VC” value (Treatment C, 0.00017 μM, Day 7) was 67.5%, the “RT activity % VC” value (Treatment C, 0.00017 μM, Day 14) was 92.9% and the “RT activity % VC” value (Treatment C, 0.00017 μM, Day 21) was 110.1%. For the same molecule, the “RT activity % VC” value (Treatment C, 0.00054 μM, Day 7) was 73.6%, the “RT activity % VC” value (Treatment C, 0.00054 μM, Day 14) was 92.3% and the “RT activity % VC” value (Treatment C, 0.00054 μM, Day 21) was 106.2%. The “RT activity % VC” value (Treatment C, 0.00168 μM, Day 7) was 45.4%, the “RT activity % VC” value (Treatment C, 0.00168 μM, Day 14) was 125.4% and the “RT activity % VC” value (Treatment C, 0.00168 μM, Day 21) was 119.1%. For the same molecule, the “RT activity % VC” value (Treatment C, 0.00524 μM, Day 7) was 28.4%, the “RT activity % VC” value (Treatment C, 0.00524 μM, Day 14) was 74.6% and the “RT activity % VC” value (Treatment C, 0.00524 μM, Day 21) was 104.7%. For the same molecule, the “RT activity % VC” value (Treatment C, 0.01638 μM, Day 7) was 22.1%, the “RT activity % VC” value (Treatment C, 0.01638 μM, Day 14) was 62.9% and the “RT activity % VC” value (Treatment C, 0.01638 μM, Day 21) was 119.2%. For the same molecule, the “RT activity % VC” value (Treatment C, 0.0512 μM, Day 7) was 17.0%, the “RT activity % VC” value (Treatment C, 0.0512 μM, Day 14) was 70.5% and the “RT activity % VC” value (Treatment C, 0.0512 μM, Day 21) was 89.2%. For the same molecule, the “RT activity % VC” value (Treatment C, 0.16 μM, Day 7) was 10.3%, the “RT activity % VC” value (Treatment C, 0.16 μM, Day 14) was 38.1% and the “RT activity % VC” value (Treatment C, 0.16 μM, Day 21) was 72.0%. The “RT activity % VC” value (Treatment C, 0.5 μM, Day 7) was 8.9%, the “RT activity % VC” value (Treatment C, 0.5 μM, Day 14) was 26.8% and the “RT activity % VC” value (Treatment C, 0.5 μM, Day 21) was 90.1%. The “RT activity % VC” value (Treatment C, 5.5E-05 μM, Day 7) was 88.6%, the “RT activity % VC” value (Treatment C, 5.5E-05 μM, Day 14) was 109.2% and the “RT activity % VC” value (Treatment C, 5.5E-05 μM, Day 21) was 198.4%.
